Results on 3 molecules are retold here after US6630454B2, “Method and pharmaceutical composition for the treatment of cancer” (priority 2001, dated 2003).

For data set [1] the following is noted: highest safe dose used for accepted indications; cited from earlier work.
In data set [2] the test system is PANC-1, C6, MCF-7, U2OS and HT1080 cells. Here is the method: Studies similar in general to those outlined in the previous section, were conducted with five cell lines selected for this task (PANC-1, C6, MCF-7, U2OS and HT1080), increasing the length of the experiment to 48 hours. The studies were done with DOX and with Vinblastine (VIN or VLB).
For a further data set, the system named is C6 and PANC-1 cells. Further details: dose or concentration left out as unconfirmed. The settings on record: […] μM fluoxetine alone, 24 hours.
For data set [3] the following is noted: clinical studies, review (DeVita et al., 1993); cited from earlier work.

`CNCCC(Oc1ccc(C(F)(F)F)cc1)c1ccccc1` (centres unmarked) [fluoxetine, N-methyl 3-(p-trifluoromethylphenoxy)-3-phenylpropylamine]: the highest safety limit in data set [1] was 15 µM. Further, the “potentiation of the cytotoxic effect of the chemotherapeutic drug” value in data set [2] was “potentiates the cytotoxic effect”. Further, in the data set on C6 and PANC-1 cells, the “effect of fluoxetine alone on cell survival” value is recorded as “does not affect cell survival at all”.
With `CC/C(=C(\c1ccccc1)c1ccc(OCCN(C)C)cc1)c1ccccc1` [tamoxifen], the “side effects / dose-limiting toxicity when used as chemosensitizer” value in data set [3] was “attributed to the inherent toxicity of the chemosensitizer”.
For the molecule `CN1CCN(CCCN2c3ccccc3Sc3ccc(C(F)(F)F)cc32)CC1` [trifluoperazine], in data set [3], the “side effects / dose-limiting toxicity when used as chemosensitizer” value is listed as “attributed to the inherent toxicity of the chemosensitizer”.
